Where two headings read alike, the source gives them in different places.

Data on 26 molecules can be found in US20240174690A1, “ANNULATED 2-AMINO-3-CYANO THIOPHENES AND DERIVATIVES FOR THE TREATMENT OF CANCER” (BOEHRINGER INGELHEIM INTERNATIONAL GMBH, priority 2021, published 2024).

Experiment [1] deals with NCI-H2122 cells. Briefly: NCI-H2122 CTG proliferation assay (120 h) (NSCLC, G12C). It counts as cell-based. The following applies: Homo sapiens. An outline of the steps:
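Proliferation was read by CellTiter-Glo luminescence after 120 h of compound exposure, starting one day after seeding 200 NCI-H2122 (G12C) cells per well in RPMI/10% FCS. RLU relative to DMSO wells gave percent viability, and four-parameter nonlinear regression gave IC50.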

In experiment [2] the test system is KRAS G12D-dependent Ba/F3 cells. Briefly: Ba/F3 proliferation assay, KRAS G12D. It counts as cell-based. The note with it: Mus musculus, BaF3, 72 h, AlamarBlue. An outline of the steps:
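Proliferation of mutant-KRAS-driven Ba/F3 cells cultured without IL-3 is followed with AlamarBlue after compound addition. Curves are fitted from duplicate wells.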
For orientation: Resazurin is reduced to fluorescent resorufin, in cell work by metabolically active cells.

For experiment [3], the system named is SK-CO-1 cells. The experiment is described as follows: SK-CO-1 CTG proliferation assay (120 h) (CRC, G12V). It counts as cell-based. The note with it: Homo sapiens; SK-CO-1 cells (CRC, G12V), CTG 120 h. In short, it runs like this:
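Compound exposure lasted 120 h in KRAS G12V SK-CO-1 cells seeded overnight at 500 cells/well in 10% FCS EMEM. CellTiter-Glo RLU normalised to DMSO wells gave percent viability, and a four-parameter model fit yielded IC50.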

The subject of experiment [4] is NCI-H358 cells. The experiment is described as follows: NCI-H358 CTG proliferation assay (120 h) (NSCLC, G12C). It is filed as cell-based, human. The note with it: Homo sapiens. In short, it runs like this:
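IC50 values derive from four-parameter nonlinear regression of CellTiter-Glo viability (RLU relative to DMSO wells) after 120 h of exposure. Cells were plated in RPMI-1640 + 10% FCS at 2000 per well (assay 1) or 200 per well (assay 2). Untreated cells were measured at compound addition as T0.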

Setting [5] is: assay 2, CTG, read-out: H358 (assay 2) IC50.
[6] abbreviates: assay 1, CTG, read-out: H358 (assay 1) IC50.

Take `C[C@H](Oc1cc(Cl)nc(-c2onc3c2CCC[C@@]32CCCc3sc(N)c(C#N)c32)n1)[C@@H]1CCCN1C` [I-1]: the IC50 (commonly the concentration that gives 50% inhibition) in experiment [1] is 4120 nM; in experiment [2] it was 178 nM; in experiment [3] it was 418 nM; in experiment [4] (setting [5]), 577 nM.

As for `C[C@H](Oc1cc(N2CCNC3(CCC3)C2)nc(-c2onc3c2CCC[C@@]32CCCc3sc(N)c(C#N)c32)n1)[C@@H]1CCCN1C` [I-3], the IC50 in experiment [1] amounted to 3370 nM; in experiment [2], 5 nM; in experiment [3] it was 2090 nM; in experiment [4] (setting [5]), 1320 nM.

Turning to `C[C@H](Oc1cc(N2CCNC3(COC3)C2)nc(-c2onc3c2CCC[C@@]32CCCc3sc(N)c(C#N)c32)n1)[C@@H]1CCCN1C` [I-4], the IC50 in experiment [1] worked out at 3750 nM; in experiment [2], 9 nM; in experiment [3], 541 nM; in experiment [4] (setting [5]), 740 nM.

Consider `C[C@H](Oc1cc(-n2ccnc2)nc(-c2onc3c2CCC[C@@]32CCCc3sc(N)c(C#N)c32)n1)[C@@H]1CCCN1C` [I-20], for which the IC50 was determined as 1360 nM in experiment [1], 30 nM in experiment [2], 185 nM in experiment [3] and 287 nM in experiment [4] (setting [5]).

With `C[C@H](Oc1cc([C@@H]2CCOC2)nc(-c2onc3c2CCC[C@@]32CCCc3sc(N)c(C#N)c32)n1)[C@@H]1CCCN1C` [I-22], the IC50 in experiment [1] was determined as 10200 nM; in experiment [2], 14 nM; in experiment [3], 20 nM; in experiment [4] (setting [6]) it was 31 nM; in experiment [4] (setting [5]), 10 nM.

Consider `CO[C@@H]1C[C@@H]([C@H](C)Oc2cc(-c3ccn(C)n3)nc(-c3onc4c3CCC[C@@]43CCCc4sc(N)c(C#N)c43)n2)N(C)C1` [I-23], for which the IC50 in experiment [1] stood at 8830 nM; in experiment [2] it was 27 nM; in experiment [3], 139 nM; in experiment [4] (setting [6]), 1 nM.

`Cc1nc(-c2cc(O[C@@H](C)[C@@H]3CCCN3C)nc(-c3onc4c3CCC[C@@]43CCCc4sc(N)c(C#N)c43)n2)cs1` [I-24]: the IC50 in experiment [1] worked out at 930 nM; in experiment [2], 24 nM; in experiment [3], 67 nM; in experiment [4] (setting [5]), 163 nM.

`C[C@H](Oc1cc(-c2ccc(N)nc2)nc(-c2onc3c2CCC[C@@]32CCCc3sc(N)c(C#N)c32)n1)[C@@H]1CCCN1C` [I-25]: the IC50 was 1650 nM in experiment [1], 261 nM in experiment [2], 357 nM in experiment [3] and 188 nM in experiment [4] (setting [5]).

As to `C[C@H](Oc1cc(-c2ccn(CC(C)(C)O)n2)nc(-c2onc3c2CCC[C@@]32CCCc3sc(N)c(C#N)c32)n1)[C@@H]1CCCN1C` [I-26], the IC50 in experiment [1] came out at 1070 nM; in experiment [2] it was 48 nM; in experiment [3] it was 118 nM; in experiment [4] (setting [5]), 140 nM.

Regarding `C[C@H](Oc1cc(-c2cnsc2)nc(-c2onc3c2CCC[C@@]32CCCc3sc(N)c(C#N)c32)n1)[C@@H]1CCCN1C` [I-27], the IC50 stood at 599 nM in experiment [1], 64 nM in experiment [2], 52 nM in experiment [3] and 121 nM in experiment [4] (setting [5]).

Take `Cc1ccc(-c2cc(O[C@@H](C)[C@@H]3CCCN3C)nc(-c3onc4c3CCC[C@@]43CCCc4sc(N)c(C#N)c43)n2)cn1` [I-28]: the IC50 in experiment [1] was 2600 nM; in experiment [2], 250 nM; in experiment [3] it was 131 nM; in experiment [4] (setting [5]) it was 240 nM.

With `C[C@H](Oc1cc(-n2nccn2)nc(-c2onc3c2CCC[C@@]32CCCc3sc(N)c(C#N)c32)n1)[C@@H]1CCCN1C` [I-29], the IC50 in experiment [1] is 3130 nM; in experiment [2], 71 nM; in experiment [3], 381 nM; in experiment [4] (setting [5]), 2760 nM.

As for `C[C@H](Oc1cc(-c2ccn(C[C@@H](C)O)n2)nc(-c2onc3c2CCC[C@@]32CCCc3sc(N)c(C#N)c32)n1)[C@@H]1CCCN1C` [I-30], the concentration for half-maximal inhibition (IC50) in experiment [1] was 837 nM; in experiment [2], 42 nM; in experiment [3] it was 31 nM; in experiment [4] (setting [5]) it was 205 nM.

For the molecule `C[C@H](Oc1cc(-n2ccc(C(=O)O)n2)nc(-c2noc3c2CCC[C@@]32CCCc3sc(N)c(C#N)c32)n1)[C@@H]1CCCN1C` [II-24], the IC50 is 5330 nM in experiment [1], > 25000 nM in experiment [2] and 9250 nM in experiment [3].

As to `C[C@H](Oc1cc(-n2ccc(C(=O)NC3COC3)n2)nc(-c2noc3c2CCC[C@@]32CCCc3sc(N)c(C#N)c32)n1)[C@@H]1CCCN1C` [II-25], the IC50 is 33 nM in experiment [1], 25 nM in experiment [2] and 3 nM in experiment [3].

In the case of `C[C@H](Oc1cc(-c2cnn(C)n2)nc(-c2noc3c2CCC[C@@]32CCCc3sc(N)c(C#N)c32)n1)[C@@H]1C[C@@H](F)CN1C` [II-28], the IC50 in experiment [1] stood at 9480 nM; in experiment [2], 90 nM; in experiment [3], 433 nM.

For `C[C@H]1CN(C)CCCN1c1cc(N2CCN(C)CC2)nc(-c2noc3c2CCC[C@@]32CCCc3sc(N)c(C#N)c32)n1` [II-30], the results for the IC50 in experiment [1], in experiment [2] and in experiment [3] were 3550 nM, 273 nM and 9070 nM, respectively.

In the case of `C[C@H](Oc1cc(N2CCNC(C)(C)C2)nc(-c2noc3c2CCC[C@@]32CCCc3sc(N)c(C#N)c32)n1)[C@@H]1CCCN1C` [II-32], the values for the IC50 in experiment [1], in experiment [2] and in experiment [3] were 3300 nM, 3 nM and 704 nM, respectively.

For `C[C@H](Oc1cc(N2C[C@H]3CN(C)C[C@H]3C2)nc(-c2noc3c2CCC[C@@]32CCCc3sc(N)c(C#N)c32)n1)[C@@H]1CCCN1C` [II-33], the IC50 in experiment [1] was found to be 4120 nM; in experiment [2], 82 nM; in experiment [3] it was 1050 nM.

`C[C@H](Oc1cc(N2CC3CCC(C2)N3)nc(-c2noc3c2CCC[C@@]32CCCc3sc(N)c(C#N)c32)n1)[C@@H]1CCCN1C` [II-34]: the values for the IC50 in experiment [1], in experiment [2] and in experiment [3] were 9010 nM, 51 nM and 1240 nM, respectively.

With `C[C@@H]1CN(c2cc(O[C@@H](C)[C@@H]3CCCN3C)nc(-c3noc4c3CCC[C@@]43CCCc4sc(N)c(C#N)c43)n2)C[C@H](C)N1` [II-36], the concentration for half-maximal inhibition (IC50) was determined as 3480 nM in experiment [1], 64 nM in experiment [2] and 1120 nM in experiment [3].

Regarding `C[C@H](Oc1cc([C@@H]2CCN(C)C2)nc(-c2noc3c2CCC[C@@]32CCCc3sc(N)c(C#N)c32)n1)[C@@H]1CCCN1C` [II-37], the IC50 was determined as 5500 nM in experiment [1], 26 nM in experiment [2] and 562 nM in experiment [3].

For the molecule `C[C@H](Oc1cc([C@H]2CCN(C)C2)nc(-c2noc3c2CCC[C@@]32CCCc3sc(N)c(C#N)c32)n1)[C@@H]1CCCN1C` [II-38], the IC50 was determined as 2590 nM in experiment [1], 11 nM in experiment [2] and 174 nM in experiment [3].

For the molecule `C[C@H](Oc1cc(N2CCN(C)CC2)nc(-c2noc3c2CCC[C@@]32CCCc3sc(N)c(C#N)c32)n1)[C@@H]1CCCN1[C@@H]1CCOC1` [II-39], the IC50 in experiment [1] was determined as 3600 nM; in experiment [2], 68 nM; in experiment [3], 1240 nM.

As for `C[C@H](Oc1nc(-c2noc3c2CCC[C@@]32CCCc3sc(N)c(C#N)c32)cc(N2C[C@H](C)N[C@@H](C)C2)n1)[C@@H]1CCCN1C` [II-46], the figures for the IC50 in experiment [1], in experiment [2] and in experiment [3] were 900 nM, 116 nM and 655 nM, respectively.

On to `C[C@H](Oc1cc(-n2ccsc2=O)nc(-c2noc3c2CCC[C@@]32CCCc3sc(N)c(C#N)c32)n1)[C@@H]1CCCN1C` [II-135], for which the IC50 in experiment [1] came to 112 nM; in experiment [2], 1040 nM; in experiment [3], 29 nM.
